Results as given in PubChem BioAssay AID1963871 (Molecular Pharmacology Branch, DTP, NCI, 2024).

Test system: KRAS-mutant PDC multicell tumor spheroid viability
Experiment: Anticancer human tumor 521955-158-R2-J5-PDC patient-derived pancreatic carcinoma cell line growth inhibition [KRAS2]
Conditions: for IC50: curve of first compound; for viability, T/C: stronger effect = lower value
Description: Multicellular complex tumor spheroid response to RAS pathway inhibitors in combination with a targeted agents in patient-derived cell lines with oncogenic KRAS variants from multiple cancer types
A high-throughput screen of multi-cell type tumor spheroids was designed to identify active combinations of targeted small molecules and KRAS pathway inhibitors. Complex spheroids include a stromal component modeled by human endothelial cells (HUVEC) and fibroblasts modeled by human mesenchymal stem cells (MSCs). The concentration ranges selected for each drug and investigational agent were based upon clinically achievable concentrations if the clinical Cmax of the agent was known.
Compounds. The drugs and investigational agents: BI-3406 (NSC825286), BAY-293 (NSC824723), batoprotafib (TNO155; NSC825523), sotorasib (AMG 510; NSC818433), MRTX1257 (NSC819558), elimusertib (BAY 1895344; NSC800525), molibresib (GSK525762; NSC774829), temuterkib (LY3214996; NSC803410), venetoclax (NSC766270), alisertib (NSC759677), olaparib (NSC753686), talazoparib (NSC767125), erdafitinib (NSC781556), ipatasertib (NSC767898), cabozantinib (NSC761068), nintedanib (NSC756659), abemaciclib (NSC768073), docetaxel (NSC628503), trametinib (NSC758246), and sapanisertib (NSC764658) were obtained from the National Cancer Institute (NCI) Developmental Therapeutics Program Chemical Repository. The FDA-approved anticancer drug set is available from the Developmental Therapeutics Program. […] The stock solutions were prepared in dimethyl sulfoxide (DMSO, Sigma-Aldrich, St. Louis, MO, cat. D2650) at 800-fold the tested concentration and stored at -70 degrees C prior to their use. All drugs and investigational agents were tested over a range starting from a high concentration at or near the clinical Cmax and decreasing in half-log increments. If the clinical Cmax for an agent had not been determined, the highest concentration tested was 10 microM.
Cell Culture. All cells were maintained in an incubator at 37 degrees C and 5% CO2 with 95% humidity. The PDC lines were cultured according to standard operating procedures established by the NCI PDMR (https://pdmr.cancer.gov/sops/default.htm). Briefly, all PDCs were thawed and cultured in Matrigel-coated flasks prepared with a working solution of 1X Ham's F-12 nutrient mix, without supplementation (Invitrogen, Waltham, MA, cat. 11765054), 100 U/mL penicillin-streptomycin (Invitrogen, cat. 15140122), and 2.5% Matrigel (Corning Inc., Corning, NY, cat. 354248) for the first three passages. All PDCs were cultured in complete DMEM/F-12 media containing advanced DMEM/F-12 (Invitrogen, cat. 12634028), 4.9% defined fetal bovine serum, heat inactivated (HyClone Laboratories Inc., Logan, UT, cat. SH30070.03HI), 389 ng/mL hydrocortisone (Sigma-Aldrich, cat. H4001), 9.7 ng/mL human EGF recombinant protein (Invitrogen, cat. PHG0313), 23.4 microg/mL adenine (Sigma-Aldrich, cat. A2786), 97.3 U/mL penicillin-streptomycin (Invitrogen, cat. 15140122), 1.9 mM L-glutamine (Invitrogen, cat. 25030081), and 9.7 microM Y-27632 dihydrochloride (Tocris Bioscience, Bristol, United Kingdom, cat. 1254). The PDCs were cultured in complete DMEM/F12 media without 9.7 microM Y-27632 dihydrochloride for at least two passages prior to the screen. The established cell line HOP-62 was cultured in RPMI 1640 medium, HEPES (Invitrogen, cat. 22400105) with 10% defined fetal bovine serum (HyClone Laboratories Inc., cat. SH30070.03) and 2 mM L-glutamine (Invitrogen, cat. 25030081). The pooled donor HUVEC were cultured in endothelial cell growth medium 2 (PromoCell, Heidelberg, Germany, cat. C-22011) and the hMSC were cultured in mesenchymal stem cell growth medium 2 (PromoCell, cat. C-28009). For all experiments, HUVEC and hMSC were used at passages </=5, while the malignant cell lines were used at passages </=15. […]

[1] = second compound 0.1 µM, first compound 0.0316 µM
[2] = second compound 0.1 µM, first compound 0.1 µM
[3] = second compound 0.1 µM, first compound 0.316 µM
[4] = second compound 0.1 µM, first compound 1 µM
[5] = second compound 0.1 µM, first compound 3.16 µM
[6] = second compound 0.1 µM, first compound 10 µM
[7] = second compound 0.316 µM, first compound 0.0316 µM
[8] = second compound 0.316 µM, first compound 0.1 µM
[9] = second compound 0.316 µM, first compound 0.316 µM
[10] = second compound 0.316 µM, first compound 1 µM
[11] = second compound 0.316 µM, first compound 3.16 µM
[12] = second compound 0.316 µM, first compound 10 µM
[13] = second compound 1 µM, first compound 0.0316 µM
[14] = second compound 1 µM, first compound 0.1 µM
[15] = second compound 1 µM, first compound 0.316 µM
[16] = second compound 1 µM, first compound 1 µM
[17] = second compound 1 µM, first compound 3.16 µM
[18] = second compound 1 µM, first compound 10 µM
[19] = second compound 3.16 µM, first compound 0.0316 µM
[20] = second compound 3.16 µM, first compound 0.1 µM
[21] = second compound 3.16 µM, first compound 0.316 µM
[22] = second compound 3.16 µM, first compound 1 µM
[23] = second compound 3.16 µM, first compound 3.16 µM
[24] = second compound 3.16 µM, first compound 10 µM
[25] = second compound 10 µM, first compound 0.0316 µM
[26] = second compound 10 µM, first compound 0.1 µM
[27] = second compound 10 µM, first compound 0.316 µM
[28] = second compound 10 µM, first compound 1 µM
[29] = second compound 10 µM, first compound 3.16 µM
[30] = second compound 10 µM, first compound 10 µM
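Further: viability read after seven days of drug exposure.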

SMILES	IC50 (second compound 0.1 µM) [nM]	IC50 (second compound 0.316 µM) [nM]	IC50 (second compound 1 µM) [nM]	IC50 (second compound 3.16 µM) [nM]	IC50 (second compound 10 µM) [nM]	viability, T/C [1] [%]	viability, T/C [2] [%]	viability, T/C [3] [%]	viability, T/C [4] [%]	viability, T/C [5] [%]	viability, T/C [6] [%]	viability, T/C [7] [%]	viability, T/C [8] [%]	viability, T/C [9] [%]	viability, T/C [10] [%]	viability, T/C [11] [%]	viability, T/C [12] [%]	viability, T/C [13] [%]	viability, T/C [14] [%]	viability, T/C [15] [%]	also measured
O=C(c1cc(Cc2n[nH]c(=O)c3ccccc23)ccc1F)N1CCN(C(=O)C2CC2)CC1 + CC1OCC2(CCN(c3cnc(Sc4ccnc(N)c4Cl)c(N)n3)CC2)C1N	> 10000	< 31.6	> 10000	< 31.6	725	67.2	71.2	57.2	55	53.3	58	48.7	48.6	46.8	49.1	49.8	40.2	106	118	92.3	viability, T/C [16]: 83.9%; viability, T/C [17]: 74.1%; viability, T/C [18]: 56.8%; viability, T/C [19]: 30.4%; viability, T/C [20]: 35.5%; viability, T/C [21]: 37.9%; viability, T/C [22]: 35.9%; viability, T/C [23]: 38.6%; viability, T/C [24]: 33.6%; viability, T/C [25]: 43.2%; viability, T/C [26]: 44.3%; viability, T/C [27]: 86.8%; viability, T/C [28]: 46.9%; viability, T/C [29]: 44%; viability, T/C [30]: 39.3%
Cn1nccc1Nc1nccc(-c2cc3c(s2)C(C)(C)N(CCN2CCOCC2)C3=O)n1 + COc1cc2nc(C)nc(NC(C)c3cc(N)cc(C(F)(F)F)c3)c2cc1OC1CCOC1	355	522	574	510	104	92.5	77.9	47.1	36.8	24.6	17.6	104	83.7	57.2	40	23.8	16.6	83.2	87.6	62	viability, T/C [16]: 37%; viability, T/C [17]: 21.2%; viability, T/C [18]: 13.9%; viability, T/C [19]: 86%; viability, T/C [20]: 75.3%; viability, T/C [21]: 60.8%; viability, T/C [22]: 36.1%; viability, T/C [23]: 17.4%; viability, T/C [24]: 8.1%; viability, T/C [25]: 76.8%; viability, T/C [26]: 51%; viability, T/C [27]: 16.8%; viability, T/C [28]: 4.05%; viability, T/C [29]: 1.96%; viability, T/C [30]: 0.81%
